According to patent US20020058077A1, “Cancer chemotherapeutical and chemopreventive agent” (priority 2000, published 2002):
*1 amine or outer side, *2 acyl side, *3 side chain or, on linkers, in order; H or OH if unused. Where a SMILES comes first, the peptide text is derived from it. Bridges are numbered along the chain shown (N, C = ends). Roman numbers before positions name the chains, in order. [ ]: non-standard residue; d: D form. Actinocin(9to1) = Cc1c2oc3c(C)ccc(C(=O)[*:1])c3nc-2c(C(=O)[*:2])c(N)c1=O; NMeV = CN[C@H](C(=O)O)C(C)C; Sar = CNCC(=O)O

Legend:
[1] = system: CNE1 cells; settings: for apoptotic cell death in TNF-α treated cells after pretreatment: PDTC 25 μM, Act D 5 μg/ml, CHX 5 μg/ml or NS398 10 μM × 30 min
Experimental: (§1) TNF-α (final concentration 15 ng/ml) was used as the positive stimulus to promote NF-κB activation in cultured cells.
Apoptosis was determined by the following assays: (i) cell morphological alterations examined under an inverted microscope, (ii) PARP cleavage determined by western blot, and (iii) TUNEL assay which was analysed using both flow cytometry and confocal microscope (Shen et al., 2000), in both attached and detached cells after various treatments.

[2] = system: COX-2; experiment: RT-PCR analysis of COX-2 mRNA in TNF-α treated CNE1 cells; settings: Act D 5 μg/ml × 30 min; TNF-α 15 ng/ml × 6 h
Experimental: as §1
RNA extraction was carried out using a total RNA extraction kit (TRIzol, Life Technologies). Briefly, cells were collected by scrapping after various treatments and washed with cold PBS once before they were lysed in the TRIzol reagent. […] Finally the RNA samples were dissolved in DEPC-H2O and quantified (1 A260=40 μg/ml). Five micrograms of total RNA from each sample were subjected to reverse transcription using Superscript II reverse transcriptase (Life Technologies) in a total volume of 50 μl. For PCR, all the amplification reactions were carried out in 20 μl which included 200 pmol of each primers, 200 μM of each dNTPs, and 0.5 units of DyNAzyme II. The PCR was performed for 30 cycles, using a program of 95° C. for 30 sec, 57° C. for 30 sec, and 72° C. for 30 sec, followed by a 10 min extension at 72° C., in a Biometra T-gradient Thermal Cycler. […] The PCR conditions were optimised to achieve exponential amplification in which the PCR product formation is proportional to the starting cDNA.

[3] = system: NF-κB; experiment: NF-κB luciferase reporter gene assay in transfected CNE1 cells; format: cell-based, human; settings: PDTC 25 μM, Act D 5 μg/ml or CHX 5 μg/ml × 30 min; TNF-α 15 ng/ml × 24 h; order PDTC <Act D <CHX
Experimental: The pNF-κB-luc vector and the negative control pTAL-luc vector were purchased as part of the Mercury Pathway Profiling Luciferase System from Clontech Laboratories. […] The transient transfection of the above plasmids into cultured CNE1 cells were performed using TransFast™ Transfection Reagent (Promega) according to the manufacturer's protocol. Briefly, when cells reached about 80% confluence in 24-well plates (approximately 10×10^4 cells per well in 0.5 ml culture medium), the growth medium from each well was removed by aspiration. […] After incubated for 1 h at 37° C., 300 μl of prewarmed complete medium was added into each well and incubated for 24 h. Transfected cells were then subjected to various treatments. The luciferase activity was measured in the cellular extracts using a luciferase assay kit (Promega). Following the treatment, the cell lysate was collected from each well after the addition of 1× cell culture lysis reagent (50 μl/well, Promega). The relative light units (RLU) were then determined in a luminometer (Lumi-one, Trans Orchid, Tampa, Fla.) for a total period of 15 sec after a 5 sec delay time.

[4] = system: COX-2; experiment: COX-2 protein level in TNF-α treated CNE1 cells by western blot; settings: CHX 5 μg/ml × 30 min; TNF-α 15 ng/ml × 24 h
Experimental: as §1
Various cell extracts (cytosolic, nuclear or whole cell) were prepared as described earlier. Equal amounts (30 μg) of protein were separated on SDS-polyacrylamide gel in the Mini-PROTEAN II system (Bio-Rad). After electrophoresis, the protein was transferred onto a Hybond-C nitrocellulose membrane (Amersham) at 4° C. using the Mini Trans-Blot Module (Bio-Rad). The membrane was blocked overnight with 5% nonfat milk in TBST (10 mM Tris-HCl, pH 7.5, 100 mM NaCl, 0.1% Tween 20), and then incubated with various primary antibodies for 2 h at room temperature. After 5 washes with TBST, the membrane was exposed to respective secondary antibodies for 1 h. The blots were detected using the enhanced chemiluminescence method (Pierce).

[5] = system: PGE2 production; experiment: PGE2 level released from CNE1 cells by enzyme immunoassay (EIA); format: cell-based, human
Experimental: The PGE2 level in the cell culture medium after various treatments was determined using an EIA kit (Cayman) according to protocol from the manufacturer. Each sample was assayed at two dilutions and each dilution in triplets. The results were presented as the fold of increase comparing to that of the control group.

[6] = Act D 5 μg/ml × 30 min pretreatment, then TNF-α 15 ng/ml × 24 h

Cc1c2oc3c(C)ccc(C(=O)N[C@@H]4C(=O)N[C@H](C(C)C)C(=O)N5CCC[C@H]5C(=O)N(C)CC(=O)N(C)[C@@H](C(C)C)C(=O)O[C@@H]4C)c3nc-2c(C(=O)N[C@@H]2C(=O)N[C@H](C(C)C)C(=O)N3CCC[C@H]3C(=O)N(C)CC(=O)N(C)[C@@H](C(C)C)C(=O)O[C@@H]2C)c(N)c1=O [Act D, actinomycin D] (I: T[dV]P[Sar][NMeV] / II: T[dV]P[Sar][NMeV]; ester I:1-I:C, II:1-II:C; linker I:N-II:N via Actinocin(9to1))
PARP cleavage [1, 6]: complete cleavage
detached apoptotic cells [1, 6]: ~100%
apoptotic cell death in TNF-α treated cells after pretreatment ([1]; then TNF-α 15 ng/ml × 24 h): severe apoptosis
COX-2 mRNA level [2]: markedly reduced

C[C@@H]1C[C@@H]([C@H](O)CC2CC(=O)NC(=O)C2)C(=O)[C@@H](C)C1 [CHX, cycloheximide]
NF-κB dependent transcription (luciferase) [3]: capable of inhibiting
apoptotic cell death in TNF-α treated cells after pretreatment ([1]; then TNF-α 15 ng/ml × 24 h): severe apoptosis
COX-2 protein level [4]: Significant reduction

CS(=O)(=O)Nc1ccc([N+](=O)[O-])cc1OC1CCCCC1 [NS398]
PGE2 production ([5]; NS398 10 μM × 30 min, TNF-α 15 ng/ml × 24 h): completely abolished
potency for the inhibition of PGE2 production compared with parthenolide ([5]; TNF-α treated CNE1 cells): higher potency
apoptotic cell death in TNF-α treated cells after pretreatment ([1]; then TNF-α 15 ng/ml × 24 h): significantly enhanced
apoptosis induction compared with parthenolide ([1]; TNF-α treated CNE1 cells): less effective
